Assay results published in US9023835B2, “Agent for ameliorating blood-brain barrier disorders” (Nagasaki University, priority 2009, dated 2015).

Key:
[1] = tested on: cerebral ischemia model mice (left middle cerebral artery infarction, reperfusion); assay: Tomato lectin staining of cerebral microvessels (blood-brain barrier disorder) in transient cerebral ischemia model mice; format: in vivo, C57BL/J6 mice; details: for tomato lectin signal (microvessel length) on the ipsilateral-to-ischemia side, cerebrocortical sensation region: 1 h MCAO, i.v. 1 h after reperfusion, ProTα 100 μg/kg, ProTα30 1 mg/kg, ProTα9 0.3 mg/kg, C-term 0.3 mg/kg; for suppression of cerebrovascular collapse (tomato lectin staining, cortex and striatum): Example 4, same experiment as Example 1, ProTα vs ProTα30
Procedure: Five minutes later, the whole body was perfused and fixed with para-formaldehyde (PFA); the brain was extracted and further treated with 4% PFA at room temperature for 3 hours. Thereafter, the brain was placed in 25% sucrose solution and allowed to stand at 4° C. overnight. The brain was freeze-embedded in the OCT compound, and a 50 μm-thick section was prepared on a plane including the cerebral cortex sensory area S1 (CS1) or S2 (CS2), bonded onto a silane-coated glass slide, and dried on a heater overnight. Thereafter, using Alexa Fluor488-labeled streptavidin (diluted 300 fold with 2% BSA/PBST), fluorescent staining of tomato lectin was performed, after which the specimen was fixed with the fluorescent antifading agent Fluoromount (Japan Tanner Corporation), and allowed to stand in the dark overnight, then examined using the LSM5 PASCAL confocal laser microscope (Carl Zeiss). Fluorescent signals were cumulatively analyzed for total fluorescence in an approximately 30 μm range by the deconvolution method.
After 0.5 hours of middle cerebral artery obstruction (MCAO), reperfusion was performed; 1 hour later, tomato lectin staining in the CS2 region was observed as a signal of approximately 30 μm length on the contralateral-to-ischemia side (the scale bar is 100 μm, ×20 objective lens).
The same experiment as that shown in Example 1 was performed using ProTα and the active form ProTα30, and the effects thereof were comparatively analyzed.
Furthermore, fluorescent staining of tomato lectin was performed in the same manner as in Example 1, and microvessels were analyzed.
When reperfusion was performed after 1 hour of middle cerebral artery occlusion (MCAO), tomato lectin staining of the cerebrocortical sensation region was observed as a signal roughly 30 μm long on the contralateral-to-ischemia side (Contra).

[2] = tested on: photoinduced middle cerebral artery thrombosis (PIT) model mice; assay: Photoinduced middle cerebral artery thrombosis (PIT) model mice: infarction region volume, motor function; format: in vivo, C57BL/J6 mice; details: for infarction (infarction region volume): after 24 hours of ischemia, solvent 48%; for motor function evaluation (inability to keep the posture and leaning or loss of spontaneous movement): 24 hours after ischemia, ProTα 100 μg/kg, ProTα30 1 mg/kg, ProTα9 0.1-1 mg/kg
Procedure: The left middle cerebral artery of a C57BL/J6 mouse was exposed under the dura, and the photosensitizing dye rose bengal was administered at 30 mg/kg into a caudal vein, after which green light with a given wavelength was irradiated to the middle cerebral artery for 10 minutes to produce a thrombus, and induce infarction with this thrombus. One hour after light irradiation, vehicle, ProTα (100 μg/kg), ProTα30 (1 mg/kg), or ProTα9 (0.1 mg/kg, 0.3 mg/kg and 1 mg/kg) was administered to a caudal vein. Next, after 24 hours of ischemia, infarction region volume was measured to evaluate the motor function in the same manner as the above.

[3] = tested on: permanent cerebral ischemia model rats; assay: Permanent cerebral ischemia model rats: infarction region volume, clinical score, survival rate
Procedure: To permanent cerebral ischemia model rats generated by infarcting the middle cerebral arteries of Sprague-Dawley rats, ProTα was administered into a caudal vein (i.v.), without reperfusion, 4 hours after the start of ischemia. Next, 24 hours later, infarction region volume was measured in the same manner as the above.
Furthermore, rats were examined over time every 24 hours to evaluate the motor function and survival rate.

[4] = tested on: permanent cerebral ischemia model mice; assay: Permanent cerebral ischemia model mice: infarction region volume, clinical score, survival rate; details: no reperfusion, 24 h later, solvent 60%
Procedure: To permanent cerebral ischemia model mice generated by infarcting the middle cerebral arteries of C57BL/J6 mice, ProTα30 was intravenously administered (i.v.), without reperfusion, 2 hours and 4 hours after the start of ischemia. Next, 24 hours later, in the same manner as the above, infarction region volume was measured.
To permanent cerebral ischemia model mice generated by infarcting the middle cerebral arteries of C57BL/J6 mice, ProTα was administered into a caudal vein at 100 μg/kg, without reperfusion, 2, 7, or 12 hours after the start of ischemia. Next, in the same manner as the above, infarction region volume was measured. […] In the same mice, motor function was evaluated. Clinical scores indicating motor function disorders were evaluated in the same manner as Example 5.
Meanwhile, a vehicle or ProTα (100 μg) was administered into a caudal vein (i.v.) 2 and 4 hours after the start of ischemia, and the mice were examined over time every 24 hours to evaluate the motor function and survival rate.

[5] = tested on: transient cerebral ischemia model mice; assay: Transient cerebral ischemia model mice: infarction region volume (TTC), clinical score, survival rate; details: for infarction (infarction region volume, TTC): 24 h later, solvent alone 48%; for infarction (infarction region volume): solvent 48%; for infarction region suppressing effect: 0.3 mg/kg i.v.
Procedure: Cerebral ischemia model mice generated by infarcting the left middle cerebral arteries of C57BL/J6 mice were maintained for 1 hour, and then reperfusion was performed. One hour after the reperfusion, a vehicle or ProTα30 (10 μg) was intracerebroventricularly administered (i.c.v.); the mice were examined over time every 24 hours to evaluate the motor function and survival rate. Also, clinical scores indicating movement disorders subsequent to left middle cerebral artery infarction were evaluated according to the rating system of 1: unable to completely extend the right forelimb, 2: rightward turning behavior, 3: unable to keep the posture and leans in the rightward direction, 4: loss of spontaneous movement, 5: death.
Meanwhile, 1 hour after ischemia and reperfusion, ProTα30 (0 μg (Veh), 0.1 μg or 10 μg) was intracerebroventricularly administered; the whole brain, extracted 24 hours thereafter was treated with 2% TTC (2,3,5-Triphenyltetrazolium chloride) staining solution in solution in PBS, and washed with PBS, after which five coronary sections of 1 mm thickness were taken with coverage of 2 mm anteriorly and 3 mm posteriorly from the bregma. […] The cerebral infarction region was evaluated according to the equation below. […] All volume on the ipsilateral side refers to the entire infarcted and non-infarcted regions on the ischemized side as divided on the median line, whereas all volume on the contralateral side refers to the entire region on the non-ischemized side.

[6] = 1 mg/kg caudal vein 1 hour after light irradiation

Row | Substance | tomato lectin signal (microvessel length) on the ipsilateral-to-ischemia side, cerebrocortical sensation region [1] | infarction (infarction region volume) ([2]; 100 μg/kg caudal vein 1 hour after infarction) [%] | motor function evaluation (inability to keep the posture and leaning or loss of spontaneous movement) [2] | cerebrovascular destruction in the CS2 and striata on the ischemized side (tomato lectin staining) ([1]; 0.1 mg/kg i.v. 1 hour after reperfusion, examined 24 hours after reperfusion) | suppression of cerebrovascular collapse (tomato lectin staining, cortex and striatum) [1] | survival rate ([3]; 100 μg caudal vein, about 2 weeks later, non-dosing group 50% one day after ischemia) | infarction (infarction region volume) ([3]; 100 μg/kg i.v. 4 hours after infarction, 24 h later, solvent 40%) [%] | infarction (infarction region volume) [2, 6] [%] | infarction (infarction region volume) ([4]; 1 mg/kg i.v. once, 2 hours after infarction) [%] | infarction (infarction region volume) ([4]; i.v. twice, at 2 hours and 4 hours) [%] | infarction (infarction region volume, TTC) ([5]; 0.1 μg i.c.v. 1 h after reperfusion) [%] | infarction (infarction region volume, TTC) ([5]; 10 μg i.c.v. 1 h after reperfusion) [%] | motor function evaluation (clinical score) ([5]; 10 μg i.c.v., loss of spontaneous movement 3 days after ischemia and reperfusion) | clinical scores (hemiparalysis of degree 3) ([5]; 0.275 mg/kg i.v.) | infarction (infarction region volume) ([5]; 0.275 mg/kg i.v. once 1 hour after reperfusion) [%] | infarction region suppressing effect [5] | clinical scores (hemiparalysis of degree 3) ([5]; 1 mg/kg i.v.) | infarction (infarction region volume) ([5]; 1 mg/kg i.v. once 1 hour after reperfusion) [%] | survival rate ([5]; mouse, in vivo) | infarction injury region, dose dependence ([2]; 0.1 mg/kg, 0.3 mg/kg and 1 mg/kg caudal vein)
1 | C-term: C-end of ProTα, amino acid sequence TKKQKKTDEDD (SEQ ID NO: 50) [reference compound] | observed only as a fragment | – | – | – | – | – | – | – | – | – | – | – | – | – | – | – | – | – | – | –
2 | prothymosin α (SDAAVDTSSEITTKDLKEKKEVVEEAEN; UniProt P26350 2-29, looked up) [ProTα] | longer signals | 23 | significantly ameliorated | disappeared nearly completely | suppressing cerebrovascular collapse | about 75% | 25 | – | – | – | – | – | – | – | – | – | – | – | – | –
3 | ProTα30: polypeptide consisting of the 49th amino acid to the 78th amino acid of rat prothymosin α (SEQ ID NO:4) (ADNEVDEEEEEGGEEEEEEEEGDGEEEDGD; consensus amino acid sequence) | longer signals | – | significantly ameliorated | – | suppressing cerebrovascular collapse | – | – | 30 | 34 | 27 | 44 | 38 | significantly ameliorated | no effect was observed | 39 | cerebral infarction region suppressing effect | ameliorated significantly | 13 | about 80% | –
4 | ProTα9: polypeptide consisting of the 52nd amino acid to the 60th amino acid of rat prothymosin α, EVDEEEEEG (SEQ ID NO:6) (consensus amino acid sequence) | longer signals | – | significantly ameliorated | – | – | – | – | 30 | – | – | – | – | – | – | – | cerebral infarction region suppressing effect | – | – | – | decreased in a dose-dependent fashion
